BindingDB's records for doi:10.1002/cbic.201402089 (University of Santiago De Compostela, 2014)
Values joined by “and” are separate entries in the source; they are usually repeats but may differ in a detail not shown here. Identical values can stand only once.

target: T1, Kinesin-like protein KIF11 [1-973] (Homo sapiens, UniProt P52732); assay: Microtubule-activated ATPase Kinetic Assay
T1 construct: 1-973
T1 sequence (P52732 whole entry): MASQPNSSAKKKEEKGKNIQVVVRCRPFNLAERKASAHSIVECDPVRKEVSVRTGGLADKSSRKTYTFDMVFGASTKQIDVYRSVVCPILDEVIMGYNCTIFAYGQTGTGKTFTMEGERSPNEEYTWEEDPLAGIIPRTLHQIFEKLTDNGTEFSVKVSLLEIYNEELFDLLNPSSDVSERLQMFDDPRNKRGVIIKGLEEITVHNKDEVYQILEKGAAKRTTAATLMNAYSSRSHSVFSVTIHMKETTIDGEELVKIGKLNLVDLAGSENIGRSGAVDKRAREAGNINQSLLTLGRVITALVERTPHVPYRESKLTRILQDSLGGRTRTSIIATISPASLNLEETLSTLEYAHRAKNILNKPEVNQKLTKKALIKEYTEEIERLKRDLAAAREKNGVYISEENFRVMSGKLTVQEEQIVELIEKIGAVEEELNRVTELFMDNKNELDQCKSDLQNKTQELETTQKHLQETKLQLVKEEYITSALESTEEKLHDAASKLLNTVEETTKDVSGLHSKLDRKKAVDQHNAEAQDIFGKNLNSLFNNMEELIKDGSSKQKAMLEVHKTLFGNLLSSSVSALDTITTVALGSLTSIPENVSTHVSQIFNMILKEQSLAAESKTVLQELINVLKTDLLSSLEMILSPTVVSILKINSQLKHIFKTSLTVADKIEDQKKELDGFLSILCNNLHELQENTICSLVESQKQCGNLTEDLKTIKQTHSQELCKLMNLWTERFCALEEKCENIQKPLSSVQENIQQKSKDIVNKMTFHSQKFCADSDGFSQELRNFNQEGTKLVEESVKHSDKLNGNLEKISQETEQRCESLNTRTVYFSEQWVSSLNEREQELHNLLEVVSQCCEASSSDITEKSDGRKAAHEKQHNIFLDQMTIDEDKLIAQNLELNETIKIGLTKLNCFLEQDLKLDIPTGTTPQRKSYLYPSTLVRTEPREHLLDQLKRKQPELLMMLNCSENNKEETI

Question: Which IC50 does the source give for `CCOC(=O)CNC(=O)C(C1CC1)n1c(C(=O)c2ccccc2)nc2cc(Br)c(Br)cc21` (stereo not drawn) [(−)-Ethyl 2-[2-(2-benzoyl-5,6-dibromo-1H-benzo[d]imidazol-1-yl)-2 cyclopropylacetamido] acetate (Compound 21)] here?
Answer: 1490 nM and 2520 nM

Question: How did the IC50 turn out when `CCCC(C(=O)NCC(=O)OCC)n1c(C(=O)c2ccccc2)nc2cc(Br)c(Br)cc21` (stereo not drawn) [(−)-Ethyl 2-[2-(2-benzoyl-5,6-dibromo-1H-benzo[d]imidazol-1-yl)pentanamido]acetate (Compound 23)] was run?
Answer: 1370 nM and 1720 nM

Question: `CCOC(=O)CNC(=O)C(C1CC1)n1c(Cc2ccccc2)nc2cc(Br)c(Br)cc21` (stereo not given) [Ethyl 2-[2-(2-benzyl-5,6-dibromo-1H-benzo[d]imidazol-1-yl)-2-cyclopropylacetamido] acetate (Compound 12)] was tested. Which IC50 did it give?
Answer: 2290 nM

Question: With `CCCC(C(=O)NCC(=O)OCC)n1c(Cc2ccccc2)nc2cc(Cl)c(Cl)cc21` (stereo not given) [Ethyl 2-[2-(2-benzyl-5,6-dichloro-1H-benzo[d]imidazol-1-yl)pentanamido] acetate (Compound 9)] as the compound, how does the IC50 read?
Answer: 1600 nM

Question: How did the IC50 turn out when `CCOC(=O)C1C(C)=NC(=S)NC1c1cccc(O)c1` (stereo not given) [ethyl 4-(3-hydroxyphenyl)-6-methyl-2-sulfanylidene-3,4-dihydro-1H-pyrimidine-5-carboxylate] was run?
Answer: 6900 nM
